Measured values from US8575158B2, “1-phenyl-substituted heterocyclyl derivatives and their use as prostaglandin D2 receptor modulators” (Actelion Pharmaceuticals Ltd., priority 2010, dated 2013).

Target: T1, hCRTH2 receptor (Homo sapiens, UniProt Q9Y5Y4)
T1 construct: expressed in transfected cells; host or cells: HEK293
T1 sequence (Q9Y5Y4 1-395): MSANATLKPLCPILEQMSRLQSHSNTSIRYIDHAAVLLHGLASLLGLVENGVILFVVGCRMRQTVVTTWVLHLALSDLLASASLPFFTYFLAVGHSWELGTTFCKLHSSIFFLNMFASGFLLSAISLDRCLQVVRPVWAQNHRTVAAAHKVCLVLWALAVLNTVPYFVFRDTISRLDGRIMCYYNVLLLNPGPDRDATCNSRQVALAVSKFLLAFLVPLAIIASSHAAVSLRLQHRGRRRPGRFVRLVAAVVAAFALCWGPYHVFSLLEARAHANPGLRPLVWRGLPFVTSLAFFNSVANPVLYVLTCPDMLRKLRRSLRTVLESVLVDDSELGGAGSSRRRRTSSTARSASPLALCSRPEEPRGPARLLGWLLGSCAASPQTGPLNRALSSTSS
Test: Radioligand displacement assay (3H-PGD2) on hCRTH2 receptor membranes
Type: binding
Conditions: antagonistic activity

[1] = 3H-PGD2 radioligand displacement, HEK293-hCRTH2 membranes
[2] = radioligand displacement (3H-PGD2), hCRTH2 receptor membranes

COc1ccc(OCC(=O)N2CCc3ccccc3C2c2cc(Cl)ccc2OCC(=O)O)cn1 (racemic) [Example 486]
IC50 [1]: 371 nM

O=C(O)COc1ccc(Cl)cc1C1c2ccccc2CCN1C(=O)COc1cnccc1Cl (racemic) [Example 487]
IC50 [1]: 400 nM

Cc1cn(CC(=O)N2CCc3ccccc3C2c2cc(Cl)ccc2OCC(=O)O)c2ccccc12 (racemic) [Example 488]
IC50 [1]: 108 nM

COc1ccc2c(ccn2CC(=O)N2CCc3ccccc3C2c2cc(Cl)ccc2OCC(=O)O)c1 (racemic) [Example 489]
IC50 [1]: 319 nM

O=C(O)COc1ccc(Cl)cc1C1c2ccccc2CCN1C(=O)NCc1ccccc1Cl (racemic) [Example 490]
IC50 [1]: 15.1 nM

O=C(O)COc1ccc(Cl)cc1C1c2ccccc2CCN1C(=O)NCc1cccc(F)c1 (racemic) [Example 491]
IC50 [1]: 19.8 nM

O=C(O)COc1ccc(Cl)cc1C1c2ccccc2CCN1C(=O)NCc1ccccc1 (racemic) [Example 492]
IC50 [1]: 16.6 nM

O=C(O)COc1ccc(Cl)cc1C1c2ccccc2CCN1C(=O)NCCc1ccccc1 (racemic) [Example 493]
IC50 [1]: 22.5 nM

O=C(O)COc1ccc(Cl)cc1C1c2ccccc2CCN1C(=O)NCc1ccc(F)cc1 (racemic) [Example 494]
IC50 [1]: 17 nM

O=C(O)COc1ccc(Cl)cc1C1c2ccccc2CCN1C(=O)NCc1ccccc1F (racemic) [Example 495]
IC50 [1]: 24.1 nM

CCCCNC(=O)N1CCc2ccccc2C1c1cc(Cl)ccc1OCC(=O)O (racemic) [Example 496]
IC50 [1]: 62.7 nM

O=C(O)COc1ccc(F)cc1C1c2cc(-c3ccc(F)cc3)ccc2CCN1C(=O)OCc1ccccc1 (racemic) [Example 497]
IC50 [1]: 793 nM

O=C(O)COc1ccc(F)cc1C1c2cc(-c3cncnc3)ccc2CCN1C(=O)OCc1ccccc1 (racemic) [Example 498]
IC50 [1]: 381 nM

O=C(O)COc1ccc(F)cc1C1c2ccccc2CN1C(=O)OCc1ccccc1 (racemic) [Example 499]
IC50 [1]: 25.4 nM

O=C(O)COc1ccc(Cl)cc1C1c2ccc(F)cc2CN1C(=O)OCc1ccccc1 (racemic) [Example 500]
IC50 [1]: 12.9 nM

O=C(O)COc1ccc(Cl)cc1C1c2cccc(F)c2CN1C(=O)OCc1ccccc1 (racemic) [Example 501]
IC50 [1]: 8.12 nM

COc1ccccc1OCC(=O)N1Cc2ccccc2C1c1cc(Cl)ccc1OCC(=O)O (racemic) [Example 502]
IC50 [1]: 56.2 nM

O=C(O)COc1ccc(Cl)cc1C1c2ccccc2CN1C(=O)COc1ccc(F)cc1 (racemic) [Example 504]
IC50 [1]: 33 nM

O=C(O)COc1ccc(Cl)cc1C1c2ccccc2CN1C(=O)CCc1cccnc1 (racemic) [Example 505]
IC50 [1]: 189 nM

Cc1ccccc1CCC(=O)N1Cc2ccccc2C1c1cc(Cl)ccc1OCC(=O)O (racemic) [Example 506]
IC50 [1]: 78.8 nM

O=C(O)COc1ccc(Cl)cc1C1c2ccccc2CN1C(=O)Cn1ccc2ccccc21 (racemic) [Example 507]
IC50 [1]: 129 nM

CCn1c(C)c(CCC(=O)N2Cc3ccccc3C2c2cc(Cl)ccc2OCC(=O)O)c2ccccc21 (racemic) [Example 508]
IC50 [1]: 127 nM

O=C(O)COc1ccc(Cl)cc1C1c2ccccc2CN1C(=O)COc1cccc2cccnc12 (racemic) [Example 509]
IC50 [1]: 37.8 nM

Cc1[nH]c2ccccc2c1CCC(=O)N1Cc2ccccc2C1c1cc(Cl)ccc1OCC(=O)O (racemic) [Example 510]
IC50 [1]: 180 nM

COc1ccc2[nH]cc(CCC(=O)N3Cc4ccccc4C3c3cc(Cl)ccc3OCC(=O)O)c2c1 (racemic) [Example 511]
IC50 [1]: 14.8 nM

Cc1ccc(OCC(=O)N2Cc3ccccc3C2c2cc(Cl)ccc2OCC(=O)O)c(C)n1 (racemic) [Example 512]
IC50 [1]: 42.5 nM

Cn1cc(CCC(=O)N2Cc3ccccc3C2c2cc(Cl)ccc2OCC(=O)O)c2ccccc21 (racemic) [Example 513]
IC50 [1]: 25.9 nM

O=C(O)COc1ccc(Cl)cc1C1c2ccccc2CN1C(=O)CCN1CCc2ccccc21 (racemic) [Example 514]
IC50 [1]: 38.8 nM

O=C(O)COc1ccc(Cl)cc1C1c2ccccc2CN1C(=O)CCN1CCCc2ccccc21 (racemic) [Example 515]
IC50 [1]: 60.1 nM

O=C(O)COc1ccc(Cl)cc1C1c2ccccc2CN1C(=O)CCn1ncc2ccccc21 (racemic) [Example 516]
IC50 [1]: 12.5 nM

O=C(O)COc1ccc(Cl)cc1C1c2ccccc2CN1C(=O)CCOc1cccc(F)c1 (racemic) [Example 517]
IC50 [1]: 123 nM

COc1ccc2onc(CC(=O)N3Cc4ccccc4C3c3cc(Cl)ccc3OCC(=O)O)c2c1 (racemic) [Example 518]
IC50 [1]: 20.1 nM

Cc1cn(CCC(=O)N2Cc3ccccc3C2c2cc(Cl)ccc2OCC(=O)O)c2ccccc12 (racemic) [Example 519]
IC50 [1]: 37.4 nM

O=C(O)COc1ccc(Cl)cc1C1c2ccccc2CN1C(=O)CCOc1ccc(F)cc1 (racemic) [Example 520]
IC50 [1]: 130 nM

O=C(O)COc1ccc(Cl)cc1C1c2ccccc2CN1C(=O)COCc1ccccc1Cl (racemic) [Example 521]
IC50 [1]: 9.11 nM

O=C(O)COc1ccc(Cl)cc1C1c2ccccc2CN1C(=O)CCOc1ccccc1F (racemic) [Example 522]
IC50 [1]: 11.7 nM

O=C(O)COc1ccc(Cl)cc1C1c2ccc(F)cc2CN1C(=O)CCn1ncc2ccccc21 (racemic) [Example 526, (±)-{4-Chloro-2-[5-fluoro-2-(3-indazol-1-yl-propionyl)-2,3-dihydro-1H-isoindol-1-yl]-phenoxy}-acetic acid]
IC50 [1]: 4.53 nM

O=C(O)COc1ccc(Cl)cc1C1c2ccccc2CN1C(=O)NCc1ccccc1F (racemic) [Example 552]
IC50 [1]: 19.6 nM

O=C(O)COc1ccc(Cl)cc1C1c2ccccc2CN1C(=O)NCc1cccc(F)c1 (racemic) [Example 553]
IC50 [1]: 17.4 nM

O=C(O)COc1ccc(Cl)cc1C1c2ccccc2CN1C(=O)NCc1ccc(F)cc1 (racemic) [Example 554]
IC50 [1]: 25.7 nM

O=C(O)COc1ccc(Cl)cc1C1c2ccccc2CN1C(=O)NCc1ccccc1 (racemic) [Example 555]
IC50 [1]: 14.5 nM

O=C(O)COc1ccc(Cl)cc1C1c2ccccc2CN1C(=O)NCCc1ccccc1 (racemic) [Example 556]
IC50 [1]: 11.7 nM

O=C(O)COc1ccc(Cl)cc1C1c2ccccc2CN1C(=O)NCc1ccccc1Cl (racemic) [Example 557]
IC50 [1]: 13.7 nM

O=C(O)COc1ccc(Cl)cc1C1c2ccc(Cl)c(Cl)c2CN1C(=O)OCc1ccccc1 (racemic) [Example 558]
IC50 [1]: 16.9 nM

O=C(O)COc1ccc(Cl)cc1C1c2ccc(F)c(F)c2CN1C(=O)OCc1ccccc1 (racemic) [Example 559]
IC50 [1]: 11.2 nM

O=C(OCc1ccccc1)N1CCc2ccccc2C1c1cc(Cl)ccc1OCc1noc(=O)[nH]1 (racemic) [Example 572, (±)-1-[5-Chloro-2-(5-oxo-4,5-dihydro-[1,2,4]oxadiazol-3-ylmethoxy)-phenyl]-3,4-dihydro-1H-isoquinoline-2-carboxylic acid benzyl ester]
IC50 [2]: 325 nM

O=C(OCc1ccccc1)N1CCc2ccccc2C1c1cc(Cl)ccc1OCc1cc(O)no1 (racemic) [Example 573, (±)-1-[5-Chloro-2-(3-hydroxy-isoxazol-5-ylmethoxy)-phenyl]-3,4-dihydro-1H-isoquinoline-2-carboxylic acid benzyl ester]
IC50 [2]: 15.3 nM
